Results: the NIST ThermoML archive (doi:10.1021/je600557n)

Columns and labels:
[1] = xn = mol fraction of the nth substance listed; details: 101 kPa, Liquid
[2] = refractive index (Na D-line) (dimensionless); xn = mol fraction of the nth substance listed; details: 101 kPa, Liquid, Standard Abbe refractometry
[3] = molar heat capacity at constant pressure; xn = mol fraction of the nth substance listed; details: 101 kPa, Liquid, Small sample (50 mg) DSC

CC1CCCO1 (stereo not drawn) [2-methyltetrahydrofuran] + C[S+](C)[O-]
Details	mass density, [1] [kg/m3]	molar heat capacity at constant pressure, [3] [J/K/mol]	refractive index, [2]	viscosity, [1] [mPa·s]
293.15 K, x2 = 0.0675	865.78	–	1.4121	0.537
293.15 K, x2 = 0.1033	–	155.2	–	–
293.15 K, x2 = 0.1168	875.28	–	1.4152	0.561
293.15 K, x2 = 0.1368	–	155.1	–	–
293.15 K, x2 = 0.2208	896.02	–	1.4215	0.631
293.15 K, x2 = 0.2714	–	155	–	–
293.15 K, x2 = 0.3228	917.54	–	1.4282	0.719
293.15 K, x2 = 0.3775	–	154.6	–	–
293.15 K, x2 = 0.4044	935.66	–	1.4336	0.78
293.15 K, x2 = 0.4694	950.78	–	1.438	0.876
293.15 K, x2 = 0.4881	–	154.2	–	–
293.15 K, x2 = 0.5058	959.5	–	1.4407	0.926
293.15 K, x2 = 0.5877	–	153.8	–	–
293.15 K, x2 = 0.5888	980.16	–	1.4468	1.047
293.15 K, x2 = 0.6274	–	153.6	–	–
293.15 K, x2 = 0.6692	1001.25	–	1.4527	1.194
293.15 K, x2 = 0.6833	–	153.2	–	–
293.15 K, x2 = 0.7448	1022.04	–	1.4589	1.354
293.15 K, x2 = 0.7593	–	152.9	–	–
293.15 K, x2 = 0.8192	1043.57	–	1.4651	1.55
293.15 K, x2 = 0.8559	–	152	–	–
293.15 K, x2 = 0.9343	–	151.2	–	–
293.15 K, x2 = 0.9523	1084.75	–	1.477	2.004
293.15 K, x2 = 0.9687	–	150.8	–	–
303.15 K, x2 = 0.0609	854.29	–	1.4055	0.468
303.15 K, x2 = 0.1033	–	158.4	–	–
303.15 K, x2 = 0.1281	867.26	–	1.4096	0.501
303.15 K, x2 = 0.1368	–	158.3	–	–
303.15 K, x2 = 0.2161	884.84	–	1.4152	0.554
303.15 K, x2 = 0.2714	–	157.7	–	–
303.15 K, x2 = 0.3184	906.38	–	1.4216	0.628
303.15 K, x2 = 0.3775	–	157.3	–	–
303.15 K, x2 = 0.4156	928.04	–	1.4281	0.71
303.15 K, x2 = 0.4881	–	156.7	–	–
303.15 K, x2 = 0.5105	950.44	–	1.4349	0.807
303.15 K, x2 = 0.5491	959.9	–	1.4378	0.852
303.15 K, x2 = 0.584	968.73	–	1.4405	0.896
303.15 K, x2 = 0.5877	–	156.1	–	–
303.15 K, x2 = 0.6274	–	155.8	–	–
303.15 K, x2 = 0.6652	989.97	–	1.4469	1.013
303.15 K, x2 = 0.6833	–	155.4	–	–
303.15 K, x2 = 0.7439	1011.62	–	1.4535	1.149
303.15 K, x2 = 0.7593	–	154.7	–	–
303.15 K, x2 = 0.8161	1032.51	–	1.4595	1.286
303.15 K, x2 = 0.8558	–	153.8	–	–
303.15 K, x2 = 0.9343	–	152.9	–	–
303.15 K, x2 = 0.9427	1071.55	–	1.4703	1.623
303.15 K, x2 = 0.9687	–	152.7	–	–
313.15 K, x2 = 0.0723	846.13	–	1.4004	0.428
313.15 K, x2 = 0.1033	–	161.5	–	–
313.15 K, x2 = 0.1209	855.52	–	1.4034	0.452
313.15 K, x2 = 0.1368	–	161.3	–	–
313.15 K, x2 = 0.2135	874.07	–	1.4093	0.497
313.15 K, x2 = 0.2714	–	160.6	–	–
313.15 K, x2 = 0.3285	898.41	–	1.4171	0.566
313.15 K, x2 = 0.3775	–	159.9	–	–
313.15 K, x2 = 0.4268	920.49	–	1.4237	0.64
313.15 K, x2 = 0.4881	–	158.9	–	–
313.15 K, x2 = 0.502	938.3	–	1.4291	0.706
313.15 K, x2 = 0.5525	950.72	–	1.433	0.751
313.15 K, x2 = 0.5877	–	158.2	–	–
313.15 K, x2 = 0.5881	959.69	–	1.4357	0.786
313.15 K, x2 = 0.6274	–	158	–	–
313.15 K, x2 = 0.6613	978.86	–	1.4415	0.872
313.15 K, x2 = 0.6833	–	157.4	–	–
313.15 K, x2 = 0.7441	1001.63	–	1.4484	0.997
313.15 K, x2 = 0.7593	–	156.7	–	–
313.15 K, x2 = 0.8488	1032.24	–	1.4572	1.162
313.15 K, x2 = 0.8558	–	155.7	–	–
313.15 K, x2 = 0.9343	–	154.5	–	–
313.15 K, x2 = 0.9474	1063.08	–	1.4666	1.374
313.15 K, x2 = 0.9687	–	154.1	–	–

C1CCOCC1 [tetrahydropyran] + C[S+](C)[O-]
Details	mass density, [1] [kg/m3]	molar heat capacity at constant pressure, [3] [J/K/mol]	refractive index, [2]	viscosity, [1] [mPa·s]
293.15 K, x2 = 0.073	895.7	–	1.4268	0.906
293.15 K, x2 = 0.0996	–	148.8	–	–
293.15 K, x2 = 0.1171	903.11	–	1.4288	0.931
293.15 K, x2 = 0.1317	–	149.7	–	–
293.15 K, x2 = 0.2176	920.63	–	1.4336	1.005
293.15 K, x2 = 0.2636	–	153	–	–
293.15 K, x2 = 0.3108	937.76	–	1.4383	1.082
293.15 K, x2 = 0.3636	–	154.6	–	–
293.15 K, x2 = 0.4069	956.42	–	1.4433	1.173
293.15 K, x2 = 0.4832	–	155.9	–	–
293.15 K, x2 = 0.4982	975.18	–	1.4483	1.274
293.15 K, x2 = 0.5309	–	156	–	–
293.15 K, x2 = 0.5763	–	155.8	–	–
293.15 K, x2 = 0.5786	992.6	–	1.4528	1.377
293.15 K, x2 = 0.6227	1002.56	–	1.4554	1.433
293.15 K, x2 = 0.6527	1009.49	–	1.4573	1.476
293.15 K, x2 = 0.6773	–	155.5	–	–
293.15 K, x2 = 0.7338	1028.89	–	1.4624	1.605
293.15 K, x2 = 0.7586	–	154.7	–	–
293.15 K, x2 = 0.8085	1047.69	–	1.4673	1.75
293.15 K, x2 = 0.8412	–	153.7	–	–
293.15 K, x2 = 0.9237	–	152	–	–
293.15 K, x2 = 0.9321	1080.93	–	1.4761	2.022
293.15 K, x2 = 0.9579	–	151.4	–	–
303.15 K, x2 = 0.0996	–	152.5	–	–
303.15 K, x2 = 0.1175	893.4	–	1.4226	0.804
303.15 K, x2 = 0.1317	–	153.1	–	–
303.15 K, x2 = 0.2209	911.49	–	1.4275	0.865
303.15 K, x2 = 0.2636	–	155	–	–
303.15 K, x2 = 0.3113	928.13	–	1.4322	0.925
303.15 K, x2 = 0.3636	–	156.1	–	–
303.15 K, x2 = 0.411	947.52	–	1.4375	1.001
303.15 K, x2 = 0.4832	–	156.6	–	–
303.15 K, x2 = 0.4945	964.64	–	1.4422	1.078
303.15 K, x2 = 0.5309	–	156.8	–	–
303.15 K, x2 = 0.5341	973.08	–	1.4444	1.112
303.15 K, x2 = 0.5763	–	156.5	–	–
303.15 K, x2 = 0.5869	984.64	–	1.4477	1.168
303.15 K, x2 = 0.6597	1001.27	–	1.4522	1.25
303.15 K, x2 = 0.6773	–	156	–	–
303.15 K, x2 = 0.7348	1019.24	–	1.4571	1.345
303.15 K, x2 = 0.7586	–	155.5	–	–
303.15 K, x2 = 0.8105	1038.27	–	1.4621	1.453
303.15 K, x2 = 0.8412	–	154.6	–	–
303.15 K, x2 = 0.876	1055.53	–	1.4666	1.563
303.15 K, x2 = 0.9237	–	153.2	–	–
303.15 K, x2 = 0.9393	1072.96	–	1.471	1.679
303.15 K, x2 = 0.9579	–	152.9	–	–
313.15 K, x2 = 0.07165	875.38	–	1.4152	0.681
313.15 K, x2 = 0.0996	–	157.1	–	–
313.15 K, x2 = 0.1195	883.44	–	1.4173	0.701
313.15 K, x2 = 0.1317	–	157.7	–	–
313.15 K, x2 = 0.2128	899.76	–	1.422	0.745
313.15 K, x2 = 0.2636	–	159.3	–	–
313.15 K, x2 = 0.3143	918.44	–	1.4272	0.803
313.15 K, x2 = 0.3636	–	160	–	–
313.15 K, x2 = 0.4102	937.09	–	1.4323	0.863
313.15 K, x2 = 0.4832	–	160.5	–	–
313.15 K, x2 = 0.4969	954.93	–	1.4375	0.927
313.15 K, x2 = 0.5309	–	160.3	–	–
313.15 K, x2 = 0.5311	962.23	–	1.4394	0.953
313.15 K, x2 = 0.5763	–	160.1	–	–
313.15 K, x2 = 0.5865	974.36	–	1.4429	0.997
313.15 K, x2 = 0.6595	991.06	–	1.4474	1.063
313.15 K, x2 = 0.6773	–	159.3	–	–
313.15 K, x2 = 0.7295	1007.8	–	1.452	1.136
313.15 K, x2 = 0.7586	–	158.5	–	–
313.15 K, x2 = 0.8349	1034.54	–	1.4592	1.26
313.15 K, x2 = 0.8412	–	157.3	–	–
313.15 K, x2 = 0.9237	–	155.8	–	–
313.15 K, x2 = 0.938	1062.5	–	1.4663	1.405
313.15 K, x2 = 0.9579	–	155.1	–	–
